Data from the NIST ThermoML archive (doi:10.1016/j.jct.2016.01.028).

Test: xn = mol fraction of the nth substance listed
Conditions: 102 kPa, Liquid; for speed of sound: Frequency=5 MHz, Single path-length method; for mass density: Vibrating tube method

CCCC(=O)[O-].C[NH2+]CCO [N-methyl-2-hydroxyethylammonium butanoate] + O
Conditions	mass density [kg/m3]	speed of sound [m/s]
298.15 K, x1 = 0.0199	1016.9	1645.6
298.15 K, x1 = 0.0497	1035	1762.6
298.15 K, x1 = 0.1005	1040.8	1773.4
298.15 K, x1 = 0.196	1050.5	1739.5
298.15 K, x1 = 0.3008	1052.5	1732
298.15 K, x1 = 0.4005	1049.1	1693.9
298.15 K, x1 = 0.509	1046.8	1674.1
298.15 K, x1 = 0.5968	1045	1659.6
298.15 K, x1 = 0.8069	1041.3	1630.4
298.15 K, x1 = 1	1035.3	1562.9
303.15 K, x1 = 0.0199	1013.1	1646.1
303.15 K, x1 = 0.0497	1032.4	1755.1
303.15 K, x1 = 0.1005	1037.9	1763.6
303.15 K, x1 = 0.196	1047.4	1725.4
303.15 K, x1 = 0.3008	1049.4	1717
303.15 K, x1 = 0.4005	1046	1678.1
303.15 K, x1 = 0.509	1043.6	1658.3
303.15 K, x1 = 0.5968	1041.7	1643.9
303.15 K, x1 = 0.8069	1038	1614.5
303.15 K, x1 = 1	1031.9	1548
308.15 K, x1 = 0.0199	1009.2	1646.7
308.15 K, x1 = 0.0497	1029.8	1747.6
308.15 K, x1 = 0.1005	1035	1753.8
308.15 K, x1 = 0.196	1044.4	1711.3
308.15 K, x1 = 0.3008	1046.3	1701.9
308.15 K, x1 = 0.4005	1042.8	1662.3
308.15 K, x1 = 0.509	1040.4	1642.4
308.15 K, x1 = 0.5968	1038.5	1628.1
308.15 K, x1 = 0.8069	1034.7	1598.6
308.15 K, x1 = 1	1028.6	1529.7
313.15 K, x1 = 0.0199	1005.3	1647.3
313.15 K, x1 = 0.0497	1027.2	1740
313.15 K, x1 = 0.1005	1032	1744
313.15 K, x1 = 0.196	1041.3	1697.2
313.15 K, x1 = 0.3008	1043.2	1686.8
313.15 K, x1 = 0.4005	1039.6	1646.5
313.15 K, x1 = 0.509	1037.2	1626.6
313.15 K, x1 = 0.5968	1035.3	1612.4
313.15 K, x1 = 0.8069	1031.4	1582.7
313.15 K, x1 = 1	1025.2	1511.9
318.15 K, x1 = 0.0199	1001.5	1647.8
318.15 K, x1 = 0.0497	1024.6	1732.5
318.15 K, x1 = 0.1005	1029.1	1734.2
318.15 K, x1 = 0.196	1038.3	1683.1
318.15 K, x1 = 0.3008	1040.1	1671.7
318.15 K, x1 = 0.4005	1036.4	1630.6
318.15 K, x1 = 0.509	1034	1610.7
318.15 K, x1 = 0.5968	1032.1	1596.6
318.15 K, x1 = 0.8069	1028.1	1566.8
318.15 K, x1 = 1	1021.9	1499.4
323.15 K, x1 = 0.0199	997.6	1648.4
323.15 K, x1 = 0.0497	1022	1725
323.15 K, x1 = 0.1005	1026.2	1724.5
323.15 K, x1 = 0.196	1035.2	1669
323.15 K, x1 = 0.3008	1036.9	1656.6
323.15 K, x1 = 0.4005	1033.3	1614.8
323.15 K, x1 = 0.509	1030.9	1594.8
323.15 K, x1 = 0.5968	1028.9	1580.8
323.15 K, x1 = 0.8069	1024.9	1550.9
323.15 K, x1 = 1	1018.5	1481.3
328.15 K, x1 = 0.0199	993.7	1648.9
328.15 K, x1 = 0.0497	1019.4	1717.5
328.15 K, x1 = 0.1005	1023.2	1714.7
328.15 K, x1 = 0.196	1032.2	1654.9
328.15 K, x1 = 0.3008	1033.8	1641.6
328.15 K, x1 = 0.4005	1030.1	1599
328.15 K, x1 = 0.509	1027.7	1579
328.15 K, x1 = 0.5968	1025.6	1565.1
328.15 K, x1 = 0.8069	1021.6	1535
328.15 K, x1 = 1	1015.2	1467.2
333.15 K, x1 = 0.0199	989.9	1649.5
333.15 K, x1 = 0.0497	1016.8	1709.9
333.15 K, x1 = 0.1005	1020.3	1704.9
333.15 K, x1 = 0.196	1029.1	1640.8
333.15 K, x1 = 0.3008	1030.7	1626.5
333.15 K, x1 = 0.4005	1026.9	1583.1
333.15 K, x1 = 0.509	1024.5	1563.1
333.15 K, x1 = 0.5968	1022.4	1549.3
333.15 K, x1 = 0.8069	1018.3	1519.1
333.15 K, x1 = 1	1011.9	1451.2

CCCCC(=O)[O-].C[NH2+]CCO [2-hydroxy-N-methylethanaminium pentanoate] + O
Conditions	mass density [kg/m3]	speed of sound [m/s]
298.15 K, x1 = 0.0199	1013	1645.3
298.15 K, x1 = 0.05	1026	1705.8
298.15 K, x1 = 0.0988	1027.5	1670.2
298.15 K, x1 = 0.2023	1029.9	1644.9
298.15 K, x1 = 0.3	1028.5	1633.5
298.15 K, x1 = 0.4053	1025.2	1609.2
298.15 K, x1 = 0.5003	1021	1583.7
298.15 K, x1 = 0.5993	1019.1	1571.3
298.15 K, x1 = 0.8061	1013.3	1541.8
298.15 K, x1 = 1	1009.3	1516.3
303.15 K, x1 = 0.0199	1009.6	1644.5
303.15 K, x1 = 0.05	1022.7	1698.6
303.15 K, x1 = 0.0988	1024.2	1659.8
303.15 K, x1 = 0.2023	1026.8	1631.5
303.15 K, x1 = 0.3	1025.4	1618.8
303.15 K, x1 = 0.4053	1022.1	1594.7
303.15 K, x1 = 0.5003	1017.8	1568.6
303.15 K, x1 = 0.5993	1015.9	1556.3
303.15 K, x1 = 0.8061	1010.1	1526.5
303.15 K, x1 = 1	1006	1503.7
308.15 K, x1 = 0.0199	1006.1	1643.7
308.15 K, x1 = 0.05	1019.3	1691.5
308.15 K, x1 = 0.0988	1020.9	1649.5
308.15 K, x1 = 0.2023	1023.7	1618.1
308.15 K, x1 = 0.3	1022.3	1604.2
308.15 K, x1 = 0.4053	1018.9	1580.2
308.15 K, x1 = 0.5003	1014.6	1553.5
308.15 K, x1 = 0.5993	1012.7	1541.4
308.15 K, x1 = 0.8061	1006.9	1511.2
308.15 K, x1 = 1	1002.8	1486.5
313.15 K, x1 = 0.0199	1002.7	1642.9
313.15 K, x1 = 0.05	1015.9	1684.3
313.15 K, x1 = 0.0988	1017.7	1639.1
313.15 K, x1 = 0.2023	1020.7	1604.8
313.15 K, x1 = 0.3	1019.2	1589.6
313.15 K, x1 = 0.4053	1015.8	1565.7
313.15 K, x1 = 0.5003	1011.5	1538.4
313.15 K, x1 = 0.5993	1009.5	1526.5
313.15 K, x1 = 0.8061	1003.6	1495.9
313.15 K, x1 = 1	999.6	1471
318.15 K, x1 = 0.0199	999.3	1642.2
318.15 K, x1 = 0.05	1012.6	1677.2
318.15 K, x1 = 0.0988	1014.4	1628.8
318.15 K, x1 = 0.2023	1017.6	1591.4
318.15 K, x1 = 0.3	1016.1	1575
318.15 K, x1 = 0.4053	1012.7	1551.2
318.15 K, x1 = 0.5003	1008.3	1523.3
318.15 K, x1 = 0.5993	1006.3	1511.5
318.15 K, x1 = 0.8061	1000.4	1480.6
318.15 K, x1 = 1	996.3	1457
323.15 K, x1 = 0.0199	995.8	1641.4
323.15 K, x1 = 0.05	1009.2	1670
323.15 K, x1 = 0.0988	1011.1	1618.5
323.15 K, x1 = 0.2023	1014.6	1578
323.15 K, x1 = 0.3	1012.9	1560.4
323.15 K, x1 = 0.4053	1009.5	1536.7
323.15 K, x1 = 0.5003	1005.1	1508.2
323.15 K, x1 = 0.5993	1003.1	1496.6
323.15 K, x1 = 0.8061	997.2	1465.3
323.15 K, x1 = 1	993.1	1440
328.15 K, x1 = 0.0199	992.4	1640.6
328.15 K, x1 = 0.05	1005.9	1662.8
328.15 K, x1 = 0.0988	1007.8	1608.1
328.15 K, x1 = 0.2023	1011.5	1564.6
328.15 K, x1 = 0.3	1009.8	1545.7
328.15 K, x1 = 0.4053	1006.4	1522.2
328.15 K, x1 = 0.5003	1002	1493.1
328.15 K, x1 = 0.5993	999.9	1481.7
328.15 K, x1 = 0.8061	993.9	1450
328.15 K, x1 = 1	989.9	1424.6
333.15 K, x1 = 0.0199	988.9	1639.8
333.15 K, x1 = 0.05	1002.5	1655.7
333.15 K, x1 = 0.0988	1004.5	1597.8
333.15 K, x1 = 0.2023	1008.5	1551.2
333.15 K, x1 = 0.3	1006.7	1531.1
333.15 K, x1 = 0.4053	1003.2	1507.7
333.15 K, x1 = 0.5003	998.8	1478.1
333.15 K, x1 = 0.5993	996.7	1466.7
333.15 K, x1 = 0.8061	990.7	1434.6
333.15 K, x1 = 1	986.7	1412.8
